Read-outs that look alike come from different tables or passages of the source.
How the values were obtained:
Assay in all cases: HotSpot kinase profiling
Type in all cases: biochemical
PLK4/SAK = target: T1, PLK4/SAK (Homo sapiens, UniProt O00444)
T1 construct: purchased Reaction Biology Corp
T1 sequence (O00444 1-970): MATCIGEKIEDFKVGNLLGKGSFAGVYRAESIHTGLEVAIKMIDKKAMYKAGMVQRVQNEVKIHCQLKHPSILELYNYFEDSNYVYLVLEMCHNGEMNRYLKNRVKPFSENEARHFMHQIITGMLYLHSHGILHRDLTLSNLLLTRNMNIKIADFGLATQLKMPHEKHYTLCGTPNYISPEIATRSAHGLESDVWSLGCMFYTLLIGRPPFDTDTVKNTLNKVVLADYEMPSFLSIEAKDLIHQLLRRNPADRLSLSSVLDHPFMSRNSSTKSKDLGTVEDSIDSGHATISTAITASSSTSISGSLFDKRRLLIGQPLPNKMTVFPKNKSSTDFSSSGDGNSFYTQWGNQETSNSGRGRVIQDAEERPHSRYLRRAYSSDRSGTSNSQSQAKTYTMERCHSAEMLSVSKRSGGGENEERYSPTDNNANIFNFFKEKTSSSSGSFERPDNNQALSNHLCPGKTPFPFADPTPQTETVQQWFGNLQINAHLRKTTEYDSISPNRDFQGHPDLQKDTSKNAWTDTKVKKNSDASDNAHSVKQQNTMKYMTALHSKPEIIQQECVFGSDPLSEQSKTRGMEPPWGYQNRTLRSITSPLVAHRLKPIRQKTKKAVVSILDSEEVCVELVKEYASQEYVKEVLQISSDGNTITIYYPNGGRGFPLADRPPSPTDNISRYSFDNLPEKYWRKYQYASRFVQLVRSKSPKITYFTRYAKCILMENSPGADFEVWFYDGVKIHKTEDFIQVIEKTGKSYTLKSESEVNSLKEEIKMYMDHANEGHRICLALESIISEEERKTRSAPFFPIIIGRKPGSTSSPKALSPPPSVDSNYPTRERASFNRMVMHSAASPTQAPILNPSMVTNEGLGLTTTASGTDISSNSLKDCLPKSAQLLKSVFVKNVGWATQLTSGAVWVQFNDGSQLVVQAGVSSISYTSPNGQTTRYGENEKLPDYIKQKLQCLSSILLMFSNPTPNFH
Method in brief: (§1)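 Radio-isotope P81 filtration format. Substrate + required cofactors in reaction buffer, kinase added, 2 h RT. Stop, wash with 0.1% phosphoric acid, detect. % inhibition vs DMSO; mean of duplicates where repeated.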

AKT2 = target: T2, AKT2 (Homo sapiens, UniProt P31751)
T2 construct: purchased Reaction Biology Corp
Method in brief: as §1

DMPK2 = target: T3, DMPK2 (Homo sapiens, UniProt Q6DT37)
T3 construct: purchased Reaction Biology Corp
Method in brief: as §1

CDK3/cyclin E = target: T4, CDK3/cyclin E (Homo sapiens, UniProt Q00526)
T4 construct: purchased Reaction Biology Corp
Method in brief: as §1

TIE2/TEK = target: T5, TIE2/TEK (Homo sapiens, UniProt Q02763)
T5 construct: purchased Reaction Biology Corp
Method in brief: as §1

EPHA5 = target: T6, EPHA5 (Homo sapiens, UniProt P54756)
T6 construct: purchased Reaction Biology Corp
Method in brief: as §1

SGK2 = target: T7, SGK2 (Homo sapiens, UniProt Q9HBY8)
T7 construct: purchased Reaction Biology Corp
T7 sequence (Q9HBY8 1-367): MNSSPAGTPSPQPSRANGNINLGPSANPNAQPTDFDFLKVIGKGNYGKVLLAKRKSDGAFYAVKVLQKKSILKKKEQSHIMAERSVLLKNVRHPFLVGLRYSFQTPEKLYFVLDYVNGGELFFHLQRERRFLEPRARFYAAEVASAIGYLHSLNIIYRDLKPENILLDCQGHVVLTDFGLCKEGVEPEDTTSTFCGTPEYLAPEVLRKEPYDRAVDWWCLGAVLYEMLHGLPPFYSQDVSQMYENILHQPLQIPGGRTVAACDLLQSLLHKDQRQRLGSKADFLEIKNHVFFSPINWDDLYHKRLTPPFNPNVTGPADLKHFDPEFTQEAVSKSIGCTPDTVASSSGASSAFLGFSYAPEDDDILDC
Method in brief: as §1

[1] = read-out: % Enzyme Activity (relative to DMSO controls) Run 1
[2] = read-out: % Enzyme Activity (relative to DMSO controls) Run 2

T6 sequence (P54756 25-1037): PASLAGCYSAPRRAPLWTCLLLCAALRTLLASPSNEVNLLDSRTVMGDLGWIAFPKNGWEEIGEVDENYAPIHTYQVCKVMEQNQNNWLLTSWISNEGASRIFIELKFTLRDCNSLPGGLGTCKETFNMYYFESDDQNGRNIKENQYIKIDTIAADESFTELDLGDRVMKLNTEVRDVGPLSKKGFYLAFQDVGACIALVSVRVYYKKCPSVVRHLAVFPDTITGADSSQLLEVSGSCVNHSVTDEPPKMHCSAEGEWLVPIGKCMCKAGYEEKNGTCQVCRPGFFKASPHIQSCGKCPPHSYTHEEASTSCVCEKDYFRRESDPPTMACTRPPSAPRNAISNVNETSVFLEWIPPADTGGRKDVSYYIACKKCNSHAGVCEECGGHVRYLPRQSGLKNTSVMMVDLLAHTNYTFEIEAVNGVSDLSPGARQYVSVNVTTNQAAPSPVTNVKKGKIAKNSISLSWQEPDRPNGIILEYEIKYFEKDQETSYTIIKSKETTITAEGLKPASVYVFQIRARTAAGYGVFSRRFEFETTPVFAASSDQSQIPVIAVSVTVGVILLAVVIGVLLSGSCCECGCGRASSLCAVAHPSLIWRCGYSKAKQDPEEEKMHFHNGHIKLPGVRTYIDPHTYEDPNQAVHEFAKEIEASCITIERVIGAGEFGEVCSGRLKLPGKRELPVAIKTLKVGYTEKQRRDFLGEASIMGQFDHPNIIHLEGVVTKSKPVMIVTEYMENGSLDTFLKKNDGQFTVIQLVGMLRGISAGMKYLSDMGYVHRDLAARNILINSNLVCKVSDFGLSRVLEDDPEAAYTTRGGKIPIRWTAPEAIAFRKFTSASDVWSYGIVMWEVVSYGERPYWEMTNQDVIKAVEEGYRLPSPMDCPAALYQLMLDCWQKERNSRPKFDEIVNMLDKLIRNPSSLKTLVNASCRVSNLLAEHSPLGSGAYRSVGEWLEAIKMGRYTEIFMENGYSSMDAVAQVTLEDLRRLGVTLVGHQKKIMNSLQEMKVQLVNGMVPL
T5 sequence (Q02763 23-1124): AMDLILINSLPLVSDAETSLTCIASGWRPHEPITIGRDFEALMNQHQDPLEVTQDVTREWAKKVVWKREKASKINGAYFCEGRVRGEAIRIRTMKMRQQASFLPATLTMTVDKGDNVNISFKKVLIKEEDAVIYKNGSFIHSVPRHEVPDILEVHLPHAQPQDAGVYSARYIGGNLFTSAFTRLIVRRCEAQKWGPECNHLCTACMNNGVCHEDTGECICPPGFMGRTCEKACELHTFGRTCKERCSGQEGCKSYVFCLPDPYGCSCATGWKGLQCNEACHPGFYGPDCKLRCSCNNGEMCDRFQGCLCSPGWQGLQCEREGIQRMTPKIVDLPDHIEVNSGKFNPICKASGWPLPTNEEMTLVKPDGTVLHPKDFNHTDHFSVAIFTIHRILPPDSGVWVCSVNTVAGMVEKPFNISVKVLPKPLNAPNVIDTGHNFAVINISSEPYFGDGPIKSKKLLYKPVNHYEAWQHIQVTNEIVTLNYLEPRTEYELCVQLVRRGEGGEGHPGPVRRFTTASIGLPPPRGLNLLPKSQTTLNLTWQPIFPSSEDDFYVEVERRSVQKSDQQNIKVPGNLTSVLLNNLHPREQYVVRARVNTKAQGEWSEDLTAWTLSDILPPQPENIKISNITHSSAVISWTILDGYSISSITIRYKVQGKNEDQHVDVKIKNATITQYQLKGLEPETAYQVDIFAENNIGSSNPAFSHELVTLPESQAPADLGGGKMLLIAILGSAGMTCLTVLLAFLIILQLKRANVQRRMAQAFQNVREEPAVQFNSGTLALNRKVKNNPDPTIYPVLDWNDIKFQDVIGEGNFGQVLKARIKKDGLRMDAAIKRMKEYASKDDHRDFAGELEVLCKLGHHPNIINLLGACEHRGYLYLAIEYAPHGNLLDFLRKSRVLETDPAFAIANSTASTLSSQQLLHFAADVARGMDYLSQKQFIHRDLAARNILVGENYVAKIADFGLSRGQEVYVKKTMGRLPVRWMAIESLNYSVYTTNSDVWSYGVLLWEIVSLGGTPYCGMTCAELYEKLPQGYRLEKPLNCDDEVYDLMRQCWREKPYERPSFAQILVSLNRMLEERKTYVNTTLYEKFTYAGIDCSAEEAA
T4 sequence (Q00526 whole entry): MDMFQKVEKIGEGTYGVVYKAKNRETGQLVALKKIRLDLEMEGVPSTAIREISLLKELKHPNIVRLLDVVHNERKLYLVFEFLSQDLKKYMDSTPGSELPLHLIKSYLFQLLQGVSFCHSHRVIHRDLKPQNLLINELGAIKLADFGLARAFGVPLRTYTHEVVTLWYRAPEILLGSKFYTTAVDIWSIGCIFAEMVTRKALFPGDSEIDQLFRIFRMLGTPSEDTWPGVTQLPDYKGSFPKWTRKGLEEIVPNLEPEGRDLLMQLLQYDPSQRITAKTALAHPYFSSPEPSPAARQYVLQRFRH
T4 sequence (P24864 whole entry partner): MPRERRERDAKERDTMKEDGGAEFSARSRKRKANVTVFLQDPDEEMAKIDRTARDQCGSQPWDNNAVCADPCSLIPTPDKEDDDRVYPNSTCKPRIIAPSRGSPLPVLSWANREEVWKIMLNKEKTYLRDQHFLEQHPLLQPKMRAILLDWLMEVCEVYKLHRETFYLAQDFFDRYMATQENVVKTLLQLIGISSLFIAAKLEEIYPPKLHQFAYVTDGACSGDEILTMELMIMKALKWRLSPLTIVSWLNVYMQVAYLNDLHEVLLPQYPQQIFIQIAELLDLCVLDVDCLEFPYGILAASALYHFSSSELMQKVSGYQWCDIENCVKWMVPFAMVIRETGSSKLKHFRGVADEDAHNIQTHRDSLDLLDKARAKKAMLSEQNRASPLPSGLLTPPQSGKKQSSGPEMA
T2 sequence (P31751 whole entry): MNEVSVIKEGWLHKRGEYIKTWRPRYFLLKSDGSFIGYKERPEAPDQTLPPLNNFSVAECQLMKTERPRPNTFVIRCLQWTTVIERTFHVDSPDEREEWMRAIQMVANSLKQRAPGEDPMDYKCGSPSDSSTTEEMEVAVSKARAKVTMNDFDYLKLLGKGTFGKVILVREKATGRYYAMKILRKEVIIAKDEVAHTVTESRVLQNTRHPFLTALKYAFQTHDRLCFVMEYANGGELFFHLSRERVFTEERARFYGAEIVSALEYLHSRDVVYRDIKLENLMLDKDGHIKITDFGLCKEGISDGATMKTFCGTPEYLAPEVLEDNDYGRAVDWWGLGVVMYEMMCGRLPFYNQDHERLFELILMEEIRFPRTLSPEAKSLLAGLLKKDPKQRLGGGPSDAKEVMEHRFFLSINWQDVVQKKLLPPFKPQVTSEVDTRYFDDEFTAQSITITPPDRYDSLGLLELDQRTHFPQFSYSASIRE
T3 sequence (Q6DT37 whole entry): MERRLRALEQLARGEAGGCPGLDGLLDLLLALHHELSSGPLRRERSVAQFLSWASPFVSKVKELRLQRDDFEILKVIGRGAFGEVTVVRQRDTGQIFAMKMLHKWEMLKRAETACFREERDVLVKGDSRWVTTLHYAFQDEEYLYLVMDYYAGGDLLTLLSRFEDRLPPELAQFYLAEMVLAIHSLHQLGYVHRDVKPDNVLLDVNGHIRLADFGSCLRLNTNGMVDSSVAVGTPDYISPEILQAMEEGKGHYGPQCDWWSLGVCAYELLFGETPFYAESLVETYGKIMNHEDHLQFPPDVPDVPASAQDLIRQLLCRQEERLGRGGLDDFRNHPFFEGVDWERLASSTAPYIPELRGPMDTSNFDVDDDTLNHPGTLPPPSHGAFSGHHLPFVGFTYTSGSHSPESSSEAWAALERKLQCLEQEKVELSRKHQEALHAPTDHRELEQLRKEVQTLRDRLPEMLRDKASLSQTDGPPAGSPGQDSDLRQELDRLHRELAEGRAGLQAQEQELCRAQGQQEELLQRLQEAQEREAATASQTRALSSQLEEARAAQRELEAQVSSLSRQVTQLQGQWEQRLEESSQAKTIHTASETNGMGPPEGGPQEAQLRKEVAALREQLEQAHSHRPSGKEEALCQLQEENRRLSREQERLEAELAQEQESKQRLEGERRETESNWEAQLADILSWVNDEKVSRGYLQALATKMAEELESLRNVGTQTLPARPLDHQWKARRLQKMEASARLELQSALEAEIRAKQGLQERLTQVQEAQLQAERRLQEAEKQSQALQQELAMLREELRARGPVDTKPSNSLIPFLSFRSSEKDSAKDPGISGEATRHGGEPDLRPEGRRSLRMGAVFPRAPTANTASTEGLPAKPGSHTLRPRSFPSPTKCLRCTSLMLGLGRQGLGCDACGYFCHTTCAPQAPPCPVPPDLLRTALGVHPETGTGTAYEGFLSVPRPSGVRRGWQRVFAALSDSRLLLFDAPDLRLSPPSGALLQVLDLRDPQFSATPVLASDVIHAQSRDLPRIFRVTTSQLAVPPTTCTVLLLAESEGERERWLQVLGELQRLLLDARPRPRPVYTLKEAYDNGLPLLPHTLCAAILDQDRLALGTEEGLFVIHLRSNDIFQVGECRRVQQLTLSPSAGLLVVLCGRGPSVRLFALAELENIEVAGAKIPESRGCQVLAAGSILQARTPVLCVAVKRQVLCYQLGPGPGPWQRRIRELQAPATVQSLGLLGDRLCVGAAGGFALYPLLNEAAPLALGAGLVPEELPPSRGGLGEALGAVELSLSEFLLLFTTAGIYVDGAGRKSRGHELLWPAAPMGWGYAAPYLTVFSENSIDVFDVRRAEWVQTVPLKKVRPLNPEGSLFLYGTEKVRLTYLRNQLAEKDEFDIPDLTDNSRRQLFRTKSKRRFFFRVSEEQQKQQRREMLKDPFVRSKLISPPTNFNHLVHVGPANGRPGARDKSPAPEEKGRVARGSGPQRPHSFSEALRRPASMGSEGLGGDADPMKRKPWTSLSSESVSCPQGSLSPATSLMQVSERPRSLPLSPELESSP

C=CC(=O)Nc1cccc(Nc2nc(Nc3ccc(OCCOC)c(F)c3)ncc2F)c1 [Compound 2]
inhibition at 3 µM (PLK4/SAK): 45%
remaining activity at 3 µM (PLK4/SAK; [1]): 54.8%
remaining activity at 3 µM (PLK4/SAK; [2]): 55.2%
inhibition at 3 µM (AKT2): 4.23%
remaining activity at 3 µM (AKT2; [1]): 93.7%
remaining activity at 3 µM (AKT2; [2]): 97.9%
inhibition at 3 µM (DMPK2): 1.54%
remaining activity at 3 µM (DMPK2; [1]): 97.4%
remaining activity at 3 µM (DMPK2; [2]): 99.6%
inhibition at 3 µM (CDK3/cyclin E): 22.4%
remaining activity at 3 µM (CDK3/cyclin E; [1]): 78.2%
remaining activity at 3 µM (CDK3/cyclin E; [2]): 77%
inhibition at 3 µM (TIE2/TEK): -5.21%
remaining activity at 3 µM (TIE2/TEK; [1]): 103%
remaining activity at 3 µM (TIE2/TEK; [2]): 108%
inhibition at 3 µM (EPHA5): 8.66%
remaining activity at 3 µM (EPHA5; [1]): 89.1%
remaining activity at 3 µM (EPHA5; [2]): 93.6%
inhibition at 3 µM (SGK2): 26%
remaining activity at 3 µM (SGK2; [1]): 71.4%
remaining activity at 3 µM (SGK2; [2]): 76.6%

From patent US9492471B2, “Methods of treating a disease or disorder associated with Bruton'S Tyrosine Kinase” (Celgene Avilomics Research, Inc., priority 2013, dated 2016)
